Three compounds from patent US20230138177A1 (priority 2020, published 2023) can be followed below.

In test [1] the target is T1, DYRK1B (Homo sapiens, UniProt Q9Y463). It counts as cell-based. Details: expressed in transfected cells; host or cells: glioma cells (U87).
In test [2] the target is T1, DYRK1B. It counts as biochemical. Details: expressed in transfected cells; host or cells: HEK293T or U87 cells; immunoprecipitate used in vitro. The note with it: FLAG-DYRK1B from cells treated with harmine 10 μM or CX-4945 1 μM for 8 hours.
In test [3] the test system is DYRK1B. It counts as cell-based, human.
In test [4] the test system is DYRK4.
For test [5], the system named is HIF2α. Type of test: cell-based, human.
The subject of test [6] is DYRK1A. It counts as cell-based, human.
Test [7] concerns GSK3β. Type of test: biochemical, human.
Chain of GSK3β (P49841 whole entry): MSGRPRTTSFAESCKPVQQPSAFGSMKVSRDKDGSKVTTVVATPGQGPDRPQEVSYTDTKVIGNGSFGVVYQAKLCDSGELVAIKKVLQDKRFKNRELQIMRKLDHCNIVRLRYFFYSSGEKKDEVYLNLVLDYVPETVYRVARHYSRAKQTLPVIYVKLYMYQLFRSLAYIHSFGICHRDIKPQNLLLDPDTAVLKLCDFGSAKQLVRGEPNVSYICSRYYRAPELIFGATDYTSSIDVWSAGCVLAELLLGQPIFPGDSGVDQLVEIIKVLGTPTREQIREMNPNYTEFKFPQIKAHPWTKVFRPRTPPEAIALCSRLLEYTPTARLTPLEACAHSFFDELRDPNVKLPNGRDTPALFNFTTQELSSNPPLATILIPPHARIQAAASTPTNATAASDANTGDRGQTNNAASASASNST
The test system of test [8] is VCB-CUL2 complex. Type of test: binding.
For test [9], the system named is GSK3β. Type of test: cell-based, human.
Test [10] addresses T2, DYRK1B (Homo sapiens, UniProt Q9Y463, P333A).
T2 construct: expressed in transfected cells; host or cells: glioma cells (U87)
Type of test: cell-based.

T1 sequence (Q9Y463 whole entry): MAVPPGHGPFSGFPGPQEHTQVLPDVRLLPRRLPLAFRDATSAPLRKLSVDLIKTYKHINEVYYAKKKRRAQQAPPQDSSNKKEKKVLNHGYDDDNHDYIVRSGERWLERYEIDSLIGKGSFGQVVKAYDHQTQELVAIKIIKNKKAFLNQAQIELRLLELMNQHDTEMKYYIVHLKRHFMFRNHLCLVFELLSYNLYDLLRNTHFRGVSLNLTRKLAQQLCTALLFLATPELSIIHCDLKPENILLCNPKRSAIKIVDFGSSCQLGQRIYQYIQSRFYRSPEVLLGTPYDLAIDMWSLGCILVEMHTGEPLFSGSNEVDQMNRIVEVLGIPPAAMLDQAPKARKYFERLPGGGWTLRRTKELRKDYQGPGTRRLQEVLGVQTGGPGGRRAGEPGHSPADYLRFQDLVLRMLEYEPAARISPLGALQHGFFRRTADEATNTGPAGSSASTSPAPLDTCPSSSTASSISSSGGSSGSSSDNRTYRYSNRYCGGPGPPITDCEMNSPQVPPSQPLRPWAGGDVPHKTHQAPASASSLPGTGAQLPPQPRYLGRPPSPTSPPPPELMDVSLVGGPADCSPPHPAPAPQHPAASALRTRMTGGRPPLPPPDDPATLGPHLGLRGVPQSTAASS
T2 sequence (Q9Y463 whole entry P333A): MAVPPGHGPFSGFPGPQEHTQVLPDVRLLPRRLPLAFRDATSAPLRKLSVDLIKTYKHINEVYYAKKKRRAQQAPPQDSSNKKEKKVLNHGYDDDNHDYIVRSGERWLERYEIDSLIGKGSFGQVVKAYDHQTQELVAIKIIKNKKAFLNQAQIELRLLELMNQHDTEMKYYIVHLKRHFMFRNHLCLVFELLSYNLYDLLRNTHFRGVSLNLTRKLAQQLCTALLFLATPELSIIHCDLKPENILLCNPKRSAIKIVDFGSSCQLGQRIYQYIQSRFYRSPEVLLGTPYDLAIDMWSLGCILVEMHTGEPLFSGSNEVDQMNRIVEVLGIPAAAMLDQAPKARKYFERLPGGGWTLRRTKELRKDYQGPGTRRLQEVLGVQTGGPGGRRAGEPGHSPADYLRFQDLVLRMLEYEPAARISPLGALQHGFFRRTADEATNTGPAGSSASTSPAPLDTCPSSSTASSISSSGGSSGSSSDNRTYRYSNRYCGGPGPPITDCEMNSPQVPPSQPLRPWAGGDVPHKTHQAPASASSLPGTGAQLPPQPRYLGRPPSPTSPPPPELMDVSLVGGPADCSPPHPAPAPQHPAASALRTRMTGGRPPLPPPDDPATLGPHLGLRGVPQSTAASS

For the compound `COc1ccc2c(c1)[nH]c1c(C)nccc12` [harmine], in test [1], the “prolyl hydroxylation of DYRK1B” value is on record as “failed to perturb” and the “tyrosine autophosphorylation of DYRK1B” value is reported as “severely impairing”. Further, the “phosphorylation of the ID2-T27 substrate” value in [2] was “severely impairing”.
On to CoCl2, for which, in test [3], the “prolyl hydroxylation of DYRK1B” value is recorded as “abolished” and the “tyrosine autophosphorylation of DYRK1B” value is listed as “abolished”. Moreover, in test [4], the “prolyl hydroxylation of DYRK4” value was “caused loss” and the “tyrosine autophosphorylation of DYRK4” value is reported as “caused loss”. In addition, in test [1], the “proline hydroxylation on DYRK1 kinase” value is “complete elimination”, the “prolyl hydroxylation of DYRK1B” value is listed as “caused loss” and the “tyrosine autophosphorylation of DYRK1B” value is recorded as “caused loss”. Also, in [5], the “proline hydroxylation on HIF2-α” value is “complete elimination” and the “prolyl-hydroxylation of HIF2α” value is “prevented”. Besides, in [6], the “prolyl hydroxylation of DYRK1A” value is given as “abolished” and the “tyrosine autophosphorylation of DYRK1A” value was “abolished”. Further, the “GSK3β-mediated phosphorylation of GST-c-MYC” value in test [7] is on record as “abolished”. Moreover, in test [8], the “ID2-mediated dissociation of CUL2 from VCB” value is on record as “elicited” and the VHL-HIF2α interaction result is “disrupted”. In addition, in test [9], the “prolyl hydroxylation of GSK3β” value was “caused loss” and the “tyrosine autophosphorylation of GSK3β” value is reported as “caused loss”.
For the compound `COC(=O)CNC(=O)C(=O)OC` [DMOG, dimethyloxalylglycine], in test [10], the “prolyl hydroxylation of DYRK1B-P333A” value was “caused loss” and the “tyrosine auto-phosphorylation of DYRK1B-P333A” value is reported as “caused loss”. In test [1], the “prolyl hydroxylation of DYRK1B” value is listed as “caused loss” and the “tyrosine autophosphorylation of DYRK1B” value was “caused loss”.
